Laboratory results as given in patent EP1001930B1, “N-HYDROXYFORMAMIDE DERIVATIVES AS INHIBITORS OF MATRIX METALLOPROTEINASES” (Abbott Laboratories, priority 1997, dated 1999).

biological target: T1, Recombinant truncated stromelysin (human sequence) (Homo sapiens, UniProt P08254); assay: Determination of stromelysin inhibition (cleavage of thiopeptide ester substrate, DTNB colour read at 405 nm); type: biochemical; settings: substrate Ac-Pro-Leu-Gly-[2-mercapto-4-methylpentanoyl]-Leu-Gly-OEt; 30 minute assay at ambient temperature; 50 mM MES/NaOH pH 6.5 with 10 mM CaCl2 and 0.2% Pluronic F-68
T1 construct: made in house; host or cells: E. coli
T1 sequence (P08254 100-272 limits assumed): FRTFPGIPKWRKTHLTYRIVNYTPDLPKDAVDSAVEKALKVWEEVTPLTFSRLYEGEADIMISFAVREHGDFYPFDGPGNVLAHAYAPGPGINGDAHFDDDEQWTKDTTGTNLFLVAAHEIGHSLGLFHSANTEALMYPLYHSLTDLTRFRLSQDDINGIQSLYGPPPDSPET
Experimental: The efficacy of the compounds of this invention as matrix metalloproteinase inhibitors was determined by measuring the inhibition of stromelysin. The inhibition of stromelysin by the compounds of this invention was determined as follows: Recombinant truncated stromelysin (human sequence) produced in E. coli was prepared by expression and purification of the protein as described by Ye et al. (Biochemistry, 1992, 31, 11231-11235, which is incorporated herein by reference). The enzyme was assayed by its cleavage of the thiopeptide ester substrate Ac-Pro-Leu-Gly-[2-mercapto-4-methylpentanoyl]-Leu-Gly-OEt as described by Weingarten and Feder (Anal. Biochem., 1985, 147, 437-440 (1985), which is incorporated herein by reference) as a substrate of vertebrate collagenase. The reported conditions were modified to allow assays to be carried out in a microtiter plate. Upon hydrolysis of the thioester bond, the released thiol group reacted rapidly with 5,5'-dithio-bis(2-nitrobenzoic acid) (DTNB) to produce a yellow color which was measured by a microtiter plate reader set at 405 nm. The rates of cleavage of the substrate by stromelysin in the presence or absence of inhibitors were measured in a 30 minute assay at ambient temperature. Solutions of the compounds in DMSO were prepared, and these were diluted at various concentrations into the assay buffer (50 mM MES/NaOH pH 6.5 with 10 mM CaCl2 and 0.2% Pluronic F-68), which was also used for dilution of the enzyme and substrate. The potency of the compounds [IC50] was calculated from the inhibition/inhibitor concentration data.

| IC50 | Structure (SMILES) |
| --- | --- |
| 1500 nM | Cc1ccc(CC(COc2ccc(-c3ccc(C#N)cc3)cc2)N(O)C=O)cc1 (racemic) [Example 10, (±)-N-[1-[[(4'-cyano-[1,1'-biphenyl]-4-yl)oxy]methyl]-2-(4-methylphenyl)ethyl]-N-hydroxyformamide] |
| 180 nM | N#Cc1ccc(-c2ccc(OCC(Cc3ccc(F)cc3)N(O)C=O)cc2)cc1 (racemic) [Example 12, (±)-N-[1-[[(4'-cyano-[1,1'-biphenyl]-4-yl)oxy]methyl]-2-(4-fluorophenyl)ethyl]-N-hydroxyformamide] |
| 300 nM | N#Cc1ccc(-c2ccc(OCC(c3ccc(F)cc3)N(O)C=O)cc2)cc1 (racemic) [Example 11, (±)-N-[2-[(4'-cyano-[1,1'-biphenyl]-4-yl)oxy]-1-(4-fluorophenyl)ethyl)-N-hydroxyformamide] |
| 36 nM | N#Cc1ccc(-c2ccc(OCC(CSc3ccccc3)N(O)C=O)cc2)cc1 (racemic) [Example 2, (±)-N-[1-[[(4'-cyano-[1,1'-biphenyl]-4-yl)oxy]methyl]-2-(phenylthio)ethyl]-N-hydroxyformamide] |
| 130 nM | N#Cc1ccc(-c2ccc(OCC(COc3ccccc3)N(O)C=O)cc2)cc1 (racemic) [Example 1, (±)-N-[1-[[(4'-cyano-[1,1'-biphenyl]-4-yl)oxy]methyl]-2-phenoxyethyl]-N-hydroxyformamide] |

The remaining lines, values behind:

| Structure (SMILES) | IC50 |
| --- | --- |
| CCCCC(COc1ccc(-c2ccc(C#N)cc2)cc1)N(O)C=O (racemic) [Example 9, (±)-N-[1-[[(4'-cyano-[1,1'-biphenyl]-4-yl)oxy]methyl]pentyl]-N-hydroxyformamide] | 100 nM |
| CC(COc1ccc(-c2ccc(C#N)cc2)cc1)N(O)C=O (racemic) [Example 13, (±)-N-[1-[[(4'-cyano-[1,1'-biphenyl]-4-yl)oxy]methyl]ethyl]-N-hydroxyformamide] | 310 nM |
| CC(=O)N(O)CCOc1ccc(-c2ccc(C#N)cc2)cc1 [Example 14, N-[2-[(4'-cyano-[1,1'-biphenyl]-4-yl)oxy]ethyl]-N-hydroxyacetamide] | 4000 nM |
| N#Cc1ccc(-c2ccc(OCC(CN3C(=O)c4ccccc4C3=O)N(O)C=O)cc2)cc1 (racemic) [Example 3, (±)-N-[1-[[(4'-cyano-[1,1'-biphenyl]-4-yl)oxy]methyl]-2-(2,3-dihydro-1,3-dioxo-1H-isoindol-2-yl)ethyl]-N-hydroxyformamide] | 21 nM |
| CCCCC(COc1ccc(-c2cccc(CC#N)c2)cc1)N(O)C=O (racemic) [Example 6, (±)-N-[1-[[[3'-(cyanomethyl)-[1,1'-biphenyl]-4-yl]oxy]methyl]pentyl]-N-hydroxyformamide] | 30 nM |
| CCC(C)C(COc1ccc(-c2ccc(C#N)cc2)cc1)N(O)C=O (racemic) [Example 8, (± )-N-[1-[[(4'-cyano-[1,1'-biphenyl]-4-yl)oxy]methyl]-2-methylbutyl]-N-hydroxyformamide] | 170 nM |
| N#Cc1ccc(-c2ccc(OCCN(O)C=O)cc2)cc1 [Example 15] | 620 nM |
